Structures are written as SMILES. pEC50, pIC50: −log10 of the molar value. ≈ marks a conversion by molar mass, not a printed value.

In data set [1] the target is Voltage-dependent L-type calcium channel subunit alpha-1C (Homo sapiens, UniProt Q13936). Nature of the data set: Inhibition of recombinant Cav1.2 channel (unknown origin) expressed in HEK293 cells assessed as effect on calcium flux incubated for 3 mins by FLIPR assay. Type of data set: cell-based. For orientation: Calcium assays in cells follow changes in intracellular calcium, usually with a dye or a luminescent sensor.

Another data set relates to Heart. Nature of the data set: Increase in coronary flow in Wistar rat Langendorff isolated perfused heart. Type of data set: functional, tissue-based.
In data set [2] the target is Voltage-dependent T-type calcium channel subunit alpha-1H (Homo sapiens, UniProt O95180). Nature of the data set: Inhibition of recombinant Cav3.2 channel (unknown origin) expressed in HEK293 cells assessed as effect on calcium flux incubated for 3 mins by FLIPR assay. It counts as cell-based.
Data set [3] can be described thus: Clearance in Wistar rat at 10 mg/kg, po or 1 mg/kg, iv. Particulars: in vivo. Type of data set: ADME, organism-based.
Data set [4] has as its target T1, Cytochrome P450 3A4 (Homo sapiens, UniProt P08684). Nature of the data set: Inhibition of CYP3A4 in human liver microsomes assessed as reduction in testosterone 6beta-hydroxylation by LC-MS/MS method. It counts as ADME.
Data set [5] can be described thus: Half life in Wistar rat at 10 mg/kg, po or 1 mg/kg, iv. Type of data set: ADME, organism-based. Particulars: in vivo.
Data set [6] concerns the target T1, Cytochrome P450 3A4. Nature of the data set: Inhibition of CYP3A4 in human liver microsomes assessed as reduction in midazolam 1'-hydroxylation by LC-MS/MS method. Type of data set: ADME. (Liver microsomes are vesicles of endoplasmic reticulum, rich in cytochrome P450 enzymes.)
Data set [7] is described as follows: Protein binding in human plasma. Type of data set: ADME, cell-free. Particulars: read-out: PPB.
A short description of data set [8]: Volume of distribution at steady state in Wistar rat at 10 mg/kg, po or 1 mg/kg, iv. Particulars: in vivo, read-out: Vdss. Type of data set: ADME, organism-based.
Data set [9] has as its system Rattus norvegicus. Kind of data set: Antihypertensive activity in freely moving conscious spontaneously hypertensive rat at assessed as reduction in mean arterial pressure at 10 mg/kg, po administered as single dose in morning at end of wake phase measured after 6 hrs by telemetry. It counts as functional, Artery.
Data set [10] concerns Rattus norvegicus. Nature of the data set: Antihypertensive activity in freely moving conscious spontaneously hypertensive rat at assessed as area between curve for reduction in mean arterial pressure at 10 mg/kg, po administered as single dose in morning at end of wake phase by telemetry. It counts as functional, Artery.
In the next data set the target is Cytochrome P450 2D6 (Homo sapiens, UniProt P10635). Nature of the data set: Inhibition of CYP2D6 in human liver microsomes assessed as reduction in dextromethorphan-O demethylation by LC-MS/MS method. It counts as ADME.
Data set [11] is described as follows: AUC in Wistar rat at 10 mg/kg, po. It counts as ADME, organism-based. Particulars: in vivo.
The nature of data set [12]: Solubility in 0.1M HCl. It counts as physicochemical.
Data set [13] can be described thus: Protein binding in rat plasma. Type of data set: ADME, cell-free. Particulars: read-out: PPB (converted).
Data set [14] in a line: Oral bioavailability in Wistar rat at 10 mg/kg. Type of data set: ADME, organism-based. Particulars: in vivo.
Data set [15] has as its target Voltage-gated inwardly rectifying potassium channel KCNH2 (Homo sapiens, UniProt Q12809). Nature of the data set: Inhibition of human ERG expressed in HEK cells by patch clamp assay.
A short description of data set [16]: Solubility in Water at pH 4. It counts as physicochemical.
Data set [17] concerns Rattus norvegicus. Nature of the data set: Antihypertensive activity in freely moving conscious spontaneously hypertensive rat at assessed as time duration for reduction in mean arterial pressure at 10 mg/kg, po administered as single dose in morning at end of wake phase by telemetry. It counts as functional, Artery.
Data set [18] is described as follows: Distribution coefficient, log D of the compound at pH 7.4. Type of data set: physicochemical. Particulars: octanol/water.
Data set [19] is described as follows: Cmax in Wistar rat at 10 mg/kg, po. Type of data set: ADME, organism-based. More on the design: dose 10 mg/kg, route oral. Particulars: in vivo.
The nature of data set [20]: Solubility in pH 7.0 buffer. Type of data set: physicochemical.
Data set [21] concerns the target T1, Cytochrome P450 3A4. Nature of the data set: Time dependent inhibition of CYP3A4 in human liver microsomes assessed as reduction in testosterone 6beta-hydroxylation incubated for 60 mins in presence of NADPH generating system by LC-MS/MS method. Type of data set: ADME.
The target of a further data set is Cytochrome P450 2C9 (Homo sapiens, UniProt P11712). Nature of the data set: Inhibition of CYP2C9 in human liver microsomes assessed as reduction in diclofenac 4'-hydroxylation by LC-MS/MS method. Type of data set: ADME.
[22] abbreviates: Rattus norvegicus, Wistar, Heart.

Voltage-dependent T-type calcium channel subunit alpha-1H, sequence (O95180 whole entry): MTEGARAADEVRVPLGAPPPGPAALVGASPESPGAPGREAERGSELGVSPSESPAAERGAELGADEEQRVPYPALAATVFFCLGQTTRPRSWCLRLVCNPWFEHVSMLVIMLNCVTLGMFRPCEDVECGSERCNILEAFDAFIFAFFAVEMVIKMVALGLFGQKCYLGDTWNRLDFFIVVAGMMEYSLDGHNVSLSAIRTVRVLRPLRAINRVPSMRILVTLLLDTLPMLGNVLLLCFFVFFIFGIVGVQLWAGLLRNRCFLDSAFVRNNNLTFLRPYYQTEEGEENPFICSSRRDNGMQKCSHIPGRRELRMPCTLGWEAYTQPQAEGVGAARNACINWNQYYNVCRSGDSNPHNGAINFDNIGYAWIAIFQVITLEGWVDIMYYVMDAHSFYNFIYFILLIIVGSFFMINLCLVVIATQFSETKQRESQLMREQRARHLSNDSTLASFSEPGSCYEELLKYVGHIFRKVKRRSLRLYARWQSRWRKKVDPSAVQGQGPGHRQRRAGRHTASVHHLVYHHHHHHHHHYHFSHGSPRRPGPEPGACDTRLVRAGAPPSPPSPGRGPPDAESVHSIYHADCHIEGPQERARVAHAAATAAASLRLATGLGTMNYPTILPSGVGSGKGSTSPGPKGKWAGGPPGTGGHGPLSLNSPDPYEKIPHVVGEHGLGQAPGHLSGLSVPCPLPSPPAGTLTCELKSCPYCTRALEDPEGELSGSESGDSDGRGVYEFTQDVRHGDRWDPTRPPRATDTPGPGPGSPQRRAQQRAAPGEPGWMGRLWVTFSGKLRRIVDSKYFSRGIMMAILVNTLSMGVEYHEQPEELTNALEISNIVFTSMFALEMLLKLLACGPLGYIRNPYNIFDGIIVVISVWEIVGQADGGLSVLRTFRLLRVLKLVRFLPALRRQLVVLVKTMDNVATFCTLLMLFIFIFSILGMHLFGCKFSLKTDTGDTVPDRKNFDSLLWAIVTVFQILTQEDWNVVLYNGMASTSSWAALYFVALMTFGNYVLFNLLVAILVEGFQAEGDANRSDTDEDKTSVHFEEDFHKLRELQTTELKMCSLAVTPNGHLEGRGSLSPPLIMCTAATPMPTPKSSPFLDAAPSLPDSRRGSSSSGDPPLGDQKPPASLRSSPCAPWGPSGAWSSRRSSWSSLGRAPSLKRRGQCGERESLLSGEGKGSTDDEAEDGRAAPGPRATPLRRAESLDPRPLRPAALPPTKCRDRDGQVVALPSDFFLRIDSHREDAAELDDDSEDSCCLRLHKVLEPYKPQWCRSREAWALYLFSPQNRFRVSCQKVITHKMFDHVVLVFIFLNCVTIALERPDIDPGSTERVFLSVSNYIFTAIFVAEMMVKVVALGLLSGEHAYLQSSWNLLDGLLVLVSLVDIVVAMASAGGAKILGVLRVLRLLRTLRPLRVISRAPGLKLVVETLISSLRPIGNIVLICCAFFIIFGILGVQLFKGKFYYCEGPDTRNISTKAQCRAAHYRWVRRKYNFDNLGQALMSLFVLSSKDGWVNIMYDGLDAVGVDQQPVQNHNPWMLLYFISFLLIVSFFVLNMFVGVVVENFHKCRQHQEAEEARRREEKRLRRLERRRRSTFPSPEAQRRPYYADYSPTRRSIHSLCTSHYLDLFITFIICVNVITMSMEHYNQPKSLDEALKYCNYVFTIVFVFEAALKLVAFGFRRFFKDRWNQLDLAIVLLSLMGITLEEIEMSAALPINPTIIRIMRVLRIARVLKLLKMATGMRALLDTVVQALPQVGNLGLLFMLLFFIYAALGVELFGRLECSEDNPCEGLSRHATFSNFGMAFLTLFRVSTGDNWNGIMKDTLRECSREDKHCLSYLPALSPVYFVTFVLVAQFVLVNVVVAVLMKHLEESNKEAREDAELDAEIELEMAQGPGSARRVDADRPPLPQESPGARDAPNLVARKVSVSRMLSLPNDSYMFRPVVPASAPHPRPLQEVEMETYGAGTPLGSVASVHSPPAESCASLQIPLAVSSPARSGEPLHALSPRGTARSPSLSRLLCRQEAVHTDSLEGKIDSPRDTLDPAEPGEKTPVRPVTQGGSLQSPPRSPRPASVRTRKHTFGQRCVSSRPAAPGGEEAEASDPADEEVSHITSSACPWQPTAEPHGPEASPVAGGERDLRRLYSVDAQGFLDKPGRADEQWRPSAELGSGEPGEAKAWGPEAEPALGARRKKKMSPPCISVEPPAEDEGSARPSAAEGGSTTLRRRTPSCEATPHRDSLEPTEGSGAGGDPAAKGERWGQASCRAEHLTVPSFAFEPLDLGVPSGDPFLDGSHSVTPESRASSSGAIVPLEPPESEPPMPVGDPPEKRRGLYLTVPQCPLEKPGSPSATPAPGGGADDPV
Voltage-dependent L-type calcium channel subunit alpha-1C, sequence (Q13936 whole entry): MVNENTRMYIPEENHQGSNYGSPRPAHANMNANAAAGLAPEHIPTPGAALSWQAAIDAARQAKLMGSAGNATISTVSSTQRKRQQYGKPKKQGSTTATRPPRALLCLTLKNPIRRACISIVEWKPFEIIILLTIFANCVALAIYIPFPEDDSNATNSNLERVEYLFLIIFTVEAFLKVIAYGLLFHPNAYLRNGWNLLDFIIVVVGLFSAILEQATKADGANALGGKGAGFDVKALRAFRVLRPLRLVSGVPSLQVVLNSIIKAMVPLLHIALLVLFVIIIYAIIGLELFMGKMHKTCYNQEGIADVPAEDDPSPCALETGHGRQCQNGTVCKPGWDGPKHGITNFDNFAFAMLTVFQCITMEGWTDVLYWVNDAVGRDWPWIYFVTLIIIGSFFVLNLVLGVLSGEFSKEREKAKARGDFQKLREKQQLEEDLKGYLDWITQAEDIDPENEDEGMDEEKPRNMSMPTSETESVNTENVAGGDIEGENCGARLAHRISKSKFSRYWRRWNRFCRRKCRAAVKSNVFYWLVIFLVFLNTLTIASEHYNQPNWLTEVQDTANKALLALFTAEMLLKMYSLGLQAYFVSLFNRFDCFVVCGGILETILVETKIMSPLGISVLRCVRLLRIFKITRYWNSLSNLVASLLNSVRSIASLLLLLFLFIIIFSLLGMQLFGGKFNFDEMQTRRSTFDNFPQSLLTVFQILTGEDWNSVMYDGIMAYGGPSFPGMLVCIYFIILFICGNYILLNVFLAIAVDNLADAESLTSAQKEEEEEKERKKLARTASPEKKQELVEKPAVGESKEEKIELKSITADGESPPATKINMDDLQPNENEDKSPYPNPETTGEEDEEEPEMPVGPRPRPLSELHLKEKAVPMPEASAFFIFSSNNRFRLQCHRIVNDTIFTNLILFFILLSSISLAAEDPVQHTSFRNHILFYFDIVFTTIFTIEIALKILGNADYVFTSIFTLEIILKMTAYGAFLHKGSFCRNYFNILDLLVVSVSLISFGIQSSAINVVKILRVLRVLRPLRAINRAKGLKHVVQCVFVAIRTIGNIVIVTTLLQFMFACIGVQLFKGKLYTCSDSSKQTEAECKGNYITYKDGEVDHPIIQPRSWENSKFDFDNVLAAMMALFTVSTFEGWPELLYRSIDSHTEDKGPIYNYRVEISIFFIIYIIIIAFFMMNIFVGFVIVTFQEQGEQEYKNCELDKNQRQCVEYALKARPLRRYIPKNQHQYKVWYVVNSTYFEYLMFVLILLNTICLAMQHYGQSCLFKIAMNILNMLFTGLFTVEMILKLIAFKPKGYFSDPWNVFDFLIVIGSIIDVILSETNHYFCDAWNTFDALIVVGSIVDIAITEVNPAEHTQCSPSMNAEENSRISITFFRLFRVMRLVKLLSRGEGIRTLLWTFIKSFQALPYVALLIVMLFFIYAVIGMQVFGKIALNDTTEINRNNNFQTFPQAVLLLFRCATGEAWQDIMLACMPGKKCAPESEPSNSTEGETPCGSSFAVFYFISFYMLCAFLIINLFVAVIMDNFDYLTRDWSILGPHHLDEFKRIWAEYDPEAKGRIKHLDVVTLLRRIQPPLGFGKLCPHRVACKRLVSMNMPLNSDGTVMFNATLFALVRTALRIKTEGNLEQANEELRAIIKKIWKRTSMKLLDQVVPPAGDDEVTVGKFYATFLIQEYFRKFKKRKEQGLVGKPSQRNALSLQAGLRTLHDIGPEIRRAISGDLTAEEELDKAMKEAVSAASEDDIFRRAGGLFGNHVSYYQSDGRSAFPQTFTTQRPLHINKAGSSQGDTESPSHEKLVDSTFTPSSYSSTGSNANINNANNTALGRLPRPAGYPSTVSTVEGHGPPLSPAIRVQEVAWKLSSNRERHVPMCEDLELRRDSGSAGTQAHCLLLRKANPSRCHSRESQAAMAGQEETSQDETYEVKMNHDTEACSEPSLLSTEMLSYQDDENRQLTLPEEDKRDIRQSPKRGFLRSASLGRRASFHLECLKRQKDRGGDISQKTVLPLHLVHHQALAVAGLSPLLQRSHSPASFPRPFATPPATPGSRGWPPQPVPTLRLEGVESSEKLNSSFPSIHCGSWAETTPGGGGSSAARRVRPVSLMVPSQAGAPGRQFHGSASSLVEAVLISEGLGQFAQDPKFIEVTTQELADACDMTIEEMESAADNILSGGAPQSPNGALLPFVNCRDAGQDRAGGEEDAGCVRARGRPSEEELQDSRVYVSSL
T1 sequence (P08684 whole entry): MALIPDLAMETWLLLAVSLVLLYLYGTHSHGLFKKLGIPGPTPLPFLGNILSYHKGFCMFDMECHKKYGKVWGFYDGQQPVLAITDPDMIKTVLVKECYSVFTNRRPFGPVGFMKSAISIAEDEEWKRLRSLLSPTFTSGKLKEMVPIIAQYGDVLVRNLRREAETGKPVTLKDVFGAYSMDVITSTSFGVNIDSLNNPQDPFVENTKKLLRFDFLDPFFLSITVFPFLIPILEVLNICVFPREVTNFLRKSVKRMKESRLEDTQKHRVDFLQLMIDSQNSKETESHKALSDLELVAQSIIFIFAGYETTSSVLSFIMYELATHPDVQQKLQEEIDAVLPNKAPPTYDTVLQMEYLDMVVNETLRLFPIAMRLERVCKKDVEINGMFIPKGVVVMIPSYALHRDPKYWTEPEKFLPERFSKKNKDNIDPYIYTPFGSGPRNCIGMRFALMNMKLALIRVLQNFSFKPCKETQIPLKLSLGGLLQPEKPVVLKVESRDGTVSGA

For the molecule `CC(C)C(=O)O[C@@]1(CCN(C)CCCc2nc3ccccc3[nH]2)C[C@H]2CC[C@@H]1c1ccccc12`, the pIC50 in [1] was 6.37; in data set [2] it was 6.40. This molecule also had a pEC50 in the data set on Heart (setting [22]) of 7.59.

Regarding `CCCC[C@@H]1C[C@@](CCN(C)CCCc2nc3ccccc3[nH]2)(OC(=O)COC)[C@@H](C(C)C)c2ccc(F)cc21`, the pIC50 in data set [1] is 6.76; in data set [2], 6.71. In the data set with Heart (setting [22]), this molecule had a pEC50 of 7.64.

As for `CO[C@@H]1C[C@@](CCN(C)CCCc2nc3ccccc3[nH]2)(OC(=O)C(C)C)[C@@H](C(C)C)c2ccc(F)cc21`, the pIC50 in data set [1] is 6.23; in data set [2], 6.25. The same molecule gave a pEC50 in the data set with Heart (setting [22]) of 7.54.

For the molecule `CC(C)C(=O)O[C@]1(CCN(C)CCCc2nc3ccccc3[nH]2)CCc2cc(F)ccc2[C@@H]1C(C)C`, the pIC50 is 6.46 in data set [1] and 6.83 in [2]. Further, in the data set on Heart (setting [22]), the pEC50 was 7.70.

For the molecule `CC(C)C(=O)O[C@]1(CCN(C)CCCc2nc3ccccc3[nH]2)C[C@@H](O)c2cc(F)ccc2[C@@H]1C(C)C`, the pIC50 is 6.30 in [1] and 6.97 in data set [2]. The molecule further showed a negative logarithm of the EC50 (pEC50) with Heart (setting [22]) of 6.87.

On to `CC(C)C(=O)O[C@]1(CCN(C)CCCc2nc3ccccc3[nH]2)C[C@@H]2CCC[C@H]1c1ccccc12` (racemic), for which the results for the pIC50 in data set [1] and in data set [2] were 6.36 and 6.66, respectively. The molecule also had a pEC50 with Heart of 7.41.

Molecule `COc1cccc2nc(CCCN(C)CC[C@]3(OC(=O)C(C)C)C[C@H]4CCC[C@@H]3c3ccccc34)[nH]c12` gave a clearance in data set [3] of 58 mL/min/kg. Besides, the pIC50 is 5.26 on Cytochrome P450 3A4 [4]; 5.52 at Cytochrome P450 3A4 [6]; 5.85 at Cytochrome P450 2D6; more than 6.40 in data set [15]; 6.41 in [1]; 4.47 on Cytochrome P450 3A4 [21]. Further, the values for the pIC50 (at Cytochrome P450 2C9; in data set [2]) were 4.49 and 7.08, respectively. Moreover, in data set [5], the half-life was 2.2 h. Also, the figures for the fraction unbound in data set [7] and in [13] were less than 0.001 and 0.002, respectively. Also, the Vd in data set [8] was determined as 7.1 L/kg. In addition, the Activity in the data set with Rattus norvegicus [9] amounted to 35 mmHg. In addition, the ABC with Rattus norvegicus [10] was found to be 377 mmHg.hr. In [11], this molecule came in with an area under the curve (AUC) of 198 ng·h/mL. For the same molecule, the solubility is 681 µg/mL (≈ 1350 µM) in data set [12], 734 µg/mL (≈ 1460 µM) in data set [16] and 119 µg/mL (≈ 236 µM) in [20]. Moreover, the bioavailability in data set [14] came to 7%. The molecule also showed a pEC50 in the data set with Heart (setting [22]) of 8.15. Moreover, in the data set on Rattus norvegicus [17], the Time stood at 24 h. Further, the log distribution coefficient (logD) in data set [18] worked out at 2.7. Moreover, the Cmax in data set [19] was determined as 64 ng/mL.

As to `CC(C)C(=O)O[C@]1(CCN(C)CCCc2nc3ccccc3[nH]2)C[C@@H]2CC[C@H]1c1ccccc12`, the pIC50 was 6.16 in data set [1] and 6.46 in data set [2]. In the data set with Heart, this molecule gave a pEC50 of less than 6.82.

Consider `CO[C@]1(CCN(C)CCCc2nc3ccccc3[nH]2)C[C@@H]2CC[C@H]1c1ccccc12` (racemic), for which the pIC50 in [1] was 5.57; in data set [2] it was 6.65. The same molecule showed a pEC50 in the data set with Heart (setting [22]) of less than 6.52.

Turning to `CC(C)C(=O)O[C@]1(CCN(C)CCCc2nc3ccccc3[nH]2)C[C@@H]2CCC[C@H]1c1ccccc12`, the results for the pIC50 in [1] and in [2] were 6.19 and 6.65, respectively. In the data set with Heart (setting [22]), this molecule had a pEC50 of 7.59.

Take `CO[C@H]1C[C@@](CCN(C)CCCc2nc3ccccc3[nH]2)(OC(=O)C(C)C)[C@@H](C(C)C)c2ccc(F)cc21`: the pIC50 in data set [1] was 6.39; in data set [2], 6.50. Besides, the pEC50 with Heart (setting [22]) is 7.40.

Take `CC(C)C(=O)O[C@]1(CCN(C)CCCc2nc3ccccc3[nH]2)C[C@H](OCc2ccccc2)c2cc(F)ccc2[C@@H]1C(C)C`: the pIC50 in data set [1] was 6.65; in data set [2], 6.95. In the data set with Heart (setting [22]), this molecule had a negative-log EC50 (pEC50) of 7.80.

In the case of `COCC(=O)O[C@]1(CCN(C)CCCc2nc3ccccc3[nH]2)CC(C)(C)c2cc(F)ccc2[C@@H]1C(C)C`, the pIC50 in [1] was 6.36; in [2], 6.68.

Consider `COCC(=O)O[C@]1(CCN(C)CCCc2nc3ccccc3[nH]2)C[C@@H]2CC[C@H]1c1ccccc12` (racemic), for which the results for the pIC50 in data set [1] and in data set [2] were 6.13 and 6.44, respectively. Besides, in the data set with Heart (setting [22]), the pEC50 is 6.60.

On to `CN(CCCc1nc2ccccc2[nH]1)CC[C@@]1(OC(=O)C2CC2)C[C@@H]2CC[C@H]1c1ccccc12` (racemic), for which the pIC50 in data set [1] is 6.85; in data set [2], 6.68. The molecule also gave a pEC50 with Heart (setting [22]) of 7.11.

For the molecule `CC(C)C(=O)O[C@]1(CCN(C)CCCc2nc3ccccc3[nH]2)C[C@@H]2CC[C@H]1c1ccccc12` (racemic), the figures for the pIC50 in [1] and in data set [2] were 6.27 and 6.36, respectively. In addition, the pEC50 with Heart was 7.38.

On to `COCC(=O)O[C@]1(CCN(C)CCCc2nc3ccccc3[nH]2)CCc2cc(F)ccc2[C@@H]1C(C)C` [MIBEFRADIL], for which, in the data set with Rattus norvegicus [9], the Activity is given as 32 mmHg. The ABC with Rattus norvegicus [10] came to 437 mmHg.hr. The same molecule showed a pEC50 with Heart (setting [22]) of 7.59.

Take `CC(C)C(=O)O[C@]1(CCN(C)CCCc2nc3ccccc3[nH]2)C[C@H](O)c2cc(F)ccc2[C@@H]1C(C)C`: the negative logarithm of the IC50 (pIC50) in data set [1] was 6.37; in data set [2] it was 7.12. In the data set on Heart (setting [22]), this molecule showed a negative-log EC50 (pEC50) of 7.42.

Turning to `CC(C)C(=O)O[C@]1(CCN(C)CCCc2nc3ccccc3[nH]2)C[C@@H]2CC[C@H]1c1nccnc12` (racemic), the values for the pIC50 in data set [1] and in [2] were less than 5.34 and 5.69, respectively. In the data set on Heart (setting [22]), this molecule had a pEC50 of less than 6.00.

`CC(C)C(=O)O[C@]1(CCN(C)CCCc2nc3ccccc3[nH]2)C[C@@H](OCc2ccccc2)c2cc(F)ccc2[C@@H]1C(C)C`: the values for the pIC50 in data set [1] and in data set [2] were 6.81 and 6.88, respectively. In addition, in the data set with Heart (setting [22]), the pEC50 was 7.70.

Take `CC(C)C(=O)O[C@@]1(CCN(C)CCCc2nc3ccccc3[nH]2)C[C@H]2CCC[C@@H]1c1ccccc12`: the pIC50 in data set [1] is 6.34; in [2], 6.74. The pEC50 in the data set on Heart (setting [22]) is 7.66.

By pIC50 is commonly meant −log10 of the IC50, conventionally taken in molar units. In general, pEC50 refers to the negative decadic logarithm of the EC50, by convention in mol/L. A high value points to a small EC50. By half-life is commonly meant the time needed for the level to fall by half in the phase considered. Read a high half-life as slow loss. Broadly, the AUC is concentration integrated over time. Read a high AUC as high exposure. In general, solubility refers to the dissolved amount per volume that the medium holds. A low value points to little dissolved substance. Broadly, the bioavailability is the share of a dose that reaches the circulation, judged against a reference dose that is usually intravenous. Lower therefore signals little systemic uptake. The term logD denotes lipophilicity at a set pH, counting ionised and neutral species. Read a high logD as a more lipophilic compound. A word on the Cmax: it is the peak of the concentration-time curve.

The values are drawn from ChEMBL document CHEMBL3608217, “Discovery of novel bridged tetrahydronaphthalene derivatives as potent T/L-type calcium channel blockers” (Bioorg Med Chem Lett, 2015).
